Where two headings read alike, the source gives them in different places.
What was measured:
SARS-CoV-2-Nluc [1] = test: microbe, parasite or virus in culture; type: cell-based
plasma protein = conditions: data from literature; cited from earlier work
SARS-CoV-2-Nluc [2] = test: microbe, parasite or virus in culture; type: cell-based; remark: listed apart in the source
[3] = human exposures in the clinics, cited from earlier work; for Cmax: read-out: Exposure (μM): Cmax
[4] = Severe acute respiratory syndrome coronavirus 2, 48 h
[5] = Severe acute respiratory syndrome coronavirus 2

SMILES	CC50 (A549-hACE2 cells; human)	EC50 (SARS-CoV-2-Nluc [1]; [4])	further results
Nc1ccn([C@@H]2O[C@@](CO)(CCl)[C@@H](O)[C@H]2F)c(=O)n1 [ALS-8112]	> 50 µM	> 10 µM	
CC(C)CN(C[C@@H](O)[C@H](Cc1ccccc1)NC(=O)O[C@H]1CCOC1)S(=O)(=O)c1ccc(N)cc1 [Amprenavir]	> 50 µM	> 10 µM	activity against SARS-CoV-2-Nluc (in words) (SARS-CoV-2-Nluc [1]): inactive; Plasma protein binding (%) (plasma protein): 90%
COC(=O)N[C@H](C(=O)N[C@@H](Cc1ccccc1)[C@@H](O)CN(Cc1ccc(-c2ccccn2)cc1)NC(=O)[C@@H](NC(=O)OC)C(C)(C)C)C(C)(C)C [Atazanavir]	> 50 µM	> 10 µM	activity against SARS-CoV-2-Nluc (in words) (SARS-CoV-2-Nluc [1]): inactive; Plasma protein binding (%) (plasma protein): 86%
O=C1c2c(O)c(=O)ccn2N([C@@H]2c3ccccc3SCc3c2ccc(F)c3F)[C@@H]2COCCN12 [Baloxavir]	47 ± 1.3 µM	> 10 µM	
O=C(NCc1c(F)cc(F)cc1F)c1cn2c(c(O)c1=O)C(=O)N1[C@H]3CC[C@H](C3)O[C@@H]1C2 [Bictegravir]	> 50 µM	> 10 µM	Plasma protein binding (%) (plasma protein): >99%
CCN(CC)CCCC(C)Nc1ccnc2cc(Cl)ccc12 (stereo not drawn) [Chloroquine]	> 50 µM	1.32 µM	EC50 (SARS-CoV-2-Nluc [1]; [5]): 1.32 µM; EC50 (SARS-CoV-2-Nluc [2]; Severe acute respiratory syndrome coronavirus 2, Vero C1008): 3.52 µM; EC50 (SARS-CoV-2-Nluc [2]; Severe acute respiratory syndrome coronavirus 2, Vero C1008, 48 h): 3.52 µM
Nc1ccn(C[C@@H](CO)OCP(=O)(O)O)c(=O)n1 [Cidofovir]	> 50 µM	> 10 µM	
CC(C)c1nc(CN(C)C(=O)N[C@@H](CCN2CCOCC2)C(=O)N[C@H](CC[C@H](Cc2ccccc2)NC(=O)OCc2cncs2)Cc2ccccc2)cs1 [Cobicistat]	47.3 ± 2.5 µM		SI (selectivity index) (SARS-CoV-2-Nluc [1]): 17.3; EC50 (SARS-CoV-2-Nluc [1]; [5]): 0.77 to 2.74 µM
CC(C)CN(C[C@@H](O)[C@H](Cc1ccccc1)NC(=O)O[C@H]1CO[C@H]2OCC[C@H]21)S(=O)(=O)c1ccc(N)cc1 [Darunavir]	> 50 µM	> 10 µM	activity against SARS-CoV-2-Nluc (in words) (SARS-CoV-2-Nluc [1]): inactive
O=C1Nc2ccc(Cl)cc2[C@@](C#CC2CC2)(C(F)(F)F)O1 [Efavirenz]	37.6 ± 10.7 µM	> 9.6 µM	SI (selectivity index) (SARS-CoV-2-Nluc [1]): <3.9; Plasma protein binding (%) (plasma protein): 99.5-99.8%; Exposure (μM): Cmin [3]: 5.6 µM; Cmax [3]: 12.9 µM
Nc1nc(=O)n([C@@H]2CS[C@H](CO)O2)cc1F [Emtricitabine]	> 50 µM	> 10 µM	activity against SARS-CoV-2-Nluc (in words) (SARS-CoV-2-Nluc [1]): inactive; Plasma protein binding (%) (plasma protein): 4%; Cmax [3]: 7.9 µM
C=C1[C@H](CO)[C@@H](O)C[C@@H]1n1cnc2c(=O)[nH]c(N)nc21 [Entecavir]	> 50 µM	> 10 µM	
NC(=O)c1nc(F)c[nH]c1=O [Favipiravir]	> 50 µM	> 10 µM	
CC(C)OC(=O)[C@H](C)N[P@+]([O-])(OC[C@H]1O[C@@](C#N)(c2ccc3c(N)ncnn23)[C@](C)(O)[C@@H]1OC(=O)C(C)C)Oc1ccccc1 [GS-6620]			CC50 (A549-hACE2 cells): > 50 µM; EC50 (SARS-CoV-2-Nluc [1]; read-out: EC50): > 10 µM
COc1ccc2c(O[C@@H]3C[C@H]4C(=O)N[C@]5(P(=O)(O)Cc6c(F)cccc6F)C[C@H]5CCCCCCC[C@H](NC(=O)OC5CCCC5)C(=O)N4C3)cc(-c3csc(NC(C)C)n3)nc2c1Cl [GS-9256]			CC50 (A549-hACE2 cells): 31.8 ± 10.9 µM; EC50 (SARS-CoV-2-Nluc [1]; read-out: EC50): > 10 µM
CC[C@@H]1C[C@]1(NC(=O)[C@@H]1C[C@@H](Oc2cc(-c3csc(NC(C)C)n3)nc3c(Cl)c(OCCN4CCOCC4)ccc23)CN1C(=O)[C@@H](NC(=O)O[C@@H]1C[C@@H]2C[C@@H]2C1)C(C)(C)C)C(=O)O [GS-9451]			CC50 (A549-hACE2 cells): > 50 µM; EC50 (SARS-CoV-2-Nluc [1]; read-out: EC50): > 10 µM
C=CC(=O)N1CCC[C@@H](n2nc(-c3ccc(Oc4ccccc4)cc3)c3c(N)ncnc32)C1 [Ibrutinib]	> 50 µM	> 10 µM	
CC(C)(C)NC(=O)[C@@H]1CN(Cc2cccnc2)CCN1C[C@@H](O)C[C@@H](Cc1ccccc1)C(=O)N[C@H]1c2ccccc2C[C@H]1O [Indinavir]	> 50 µM	> 10 µM	activity against SARS-CoV-2-Nluc (in words) (SARS-CoV-2-Nluc [1]): inactive
COC(=O)N[C@H](C(=O)N1CC2(CC2)C[C@H]1c1ncc(-c2ccc3c(c2)C(F)(F)c2cc(-c4ccc5nc([C@@H]6[C@H]7CC[C@H](C7)N6C(=O)[C@@H](NC(=O)OC)C(C)C)[nH]c5c4)ccc2-3)[nH]1)C(C)C [Ledapisvir]	> 50 µM	> 10 µM	activity against SARS-CoV-2-Nluc (in words) (SARS-CoV-2-Nluc [1]): inactive
Cc1cccc(C)c1OCC(=O)N[C@@H](Cc1ccccc1)[C@@H](O)C[C@H](Cc1ccccc1)NC(=O)[C@H](C(C)C)N1CCCNC1=O [Lopinavir]	31.5 ± 2.5 µM	8 to 9 µM	EC50 (SARS-CoV-2-Nluc [1]): 9 ± 0.42 µM; Plasma protein binding (%) (plasma protein): 98-99%
C[C@@]1(O)[C@H](O)[C@@H](CO)O[C@H]1n1ccc2c(N)ncnc21 [MK-0608]			CC50 (A549-hACE2 cells): > 50 µM; EC50 (SARS-CoV-2-Nluc [1]; read-out: EC50): > 10 µM

— patent publication US20230416692A1 (BOARD OF REGENTS, THE UNIVERSITY OF TEXAS SYSTEM, priority 2020, published 2023)
